# Source: PMC5218480 (PLoS ONE, 2017)
# System: MV-4-11 cells
# Test: Gene expression microarray analysis (Affymetrix PrimeView) and GSEA
# Format: cell-based, human
# Set-up: RFU PODN (11730768_x_at) / Fold change /veh PODN (11730768_x_at) / RFU LINC00158 (11744669_a_at) / Fold change /veh LINC00158 (11744669_a_at) / RFU DUSP10 (11751237_a_at) / Fold change /veh DUSP10 (11751237_a_at) / RFU ID3 (11757404_x_at) / Fold change /veh ID3 (11757404_x_at) / RFU PLEKHG5 (11737974_s_at) / Fold change /veh PLEKHG5 (11737974_s_at) / RFU LRRC4B (11730491_at) / Fold change /veh LRRC4B (11730491_at) / RFU GIMAP4 (11747438_a_at) / Fold change /veh GIMAP4 (11747438_a_at) / RFU KRT8 (11758183_x_at) / Fold change /veh KRT8 (11758183_x_at) / RFU CNN1 (11734310_a_at) / Fold change /veh CNN1 (11734310_a_at) / RFU VPS37D (11726825_at) / Fold change /veh VPS37D (11726825_at) / RFU C10orf10 (11716522_x_at) / Fold change /veh C10orf10 (11716522_x_at) / RFU KIR2DL2 /// KIR2DL4 /// KIR2DL5A /// KIR2DL5B /// KIR2DS1 /// KIR2DS2 /// KIR2DS3 /// KIR2DS4 /// KIR3DL3 /// KIR3DL3 /// KIR3DS1 (11738374_at) / Fold change /veh KIR2DL2 /// KIR2DL4 /// KIR2DL5A /// KIR2DL5B /// KIR2DS1 /// KIR2DS2 /// KIR2DS3 /// KIR2DS4 /// KIR3DL3 /// KIR3DL3 /// KIR3DS1 (11738374_at) / RFU C1QL1 (11718748_at) / Fold change /veh C1QL1 (11718748_at) / RFU TMPRSS4 (11747572_a_at) / Fold change /veh TMPRSS4 (11747572_a_at) / RFU HAMP (11756126_x_at) / Fold change /veh HAMP (11756126_x_at) / RFU RNFT2 (11725882_a_at) / Fold change /veh RNFT2 (11725882_a_at) / RFU NR4A2 (11747474_a_at) / Fold change /veh NR4A2 (11747474_a_at) / RFU ABCC12 (11746883_a_at) / Fold change /veh ABCC12 (11746883_a_at) / RFU TMEM136 (11760407_x_at) / Fold change /veh TMEM136 (11760407_x_at) / RFU CLDN22 /// WWC2 (11732394_at) / Fold change /veh CLDN22 /// WWC2 (11732394_at) / RFU HLA-DPB1 (11760878_x_at) / Fold change /veh HLA-DPB1 (11760878_x_at) / RFU SPINT1 (11716480_a_at) / Fold change /veh SPINT1 (11716480_a_at) / RFU GAP43 (11754022_s_at) / Fold change /veh GAP43 (11754022_s_at) / RFU A4GNT (11735810_at) / Fold change /veh A4GNT (11735810_at) / RFU PRB3 (11715151_x_at) / Fold change /veh PRB3 (11715151_x_at) / RFU TUBB4B (11761932_at) / Fold change /veh TUBB4B (11761932_at) / RFU CAPN14 (11732068_a_at) / Fold change /veh CAPN14 (11732068_a_at) / RFU TMCC2 (11721928_a_at) / Fold change /veh TMCC2 (11721928_a_at) / RFU IRGQ (11745062_a_at) / Fold change /veh IRGQ (11745062_a_at) / RFU FAM174B (11720279_a_at) / Fold change /veh FAM174B (11720279_a_at) / RFU TMPRSS4 (11748680_a_at) / Fold change /veh TMPRSS4 (11748680_a_at) / RFU FAM212B (11763350_a_at) / Fold change /veh FAM212B (11763350_a_at) / RFU PLEKHG5 (11743358_a_at) / Fold change /veh PLEKHG5 (11743358_a_at) / RFU ZSCAN30 (11745921_a_at) / Fold change /veh ZSCAN30 (11745921_a_at) / RFU CMKLR1 (11741424_a_at) / Fold change /veh CMKLR1 (11741424_a_at) / RFU LOC101060620 /// MAPK8IP1 (11723275_at) / Fold change /veh LOC101060620 /// MAPK8IP1 (11723275_at) / RFU SPTSSB (11747773_x_at) / Fold change /veh SPTSSB (11747773_x_at) / RFU PRSS12 (11739890_at) / Fold change /veh PRSS12 (11739890_at) / RFU BIN1 (11741810_x_at) / Fold change /veh BIN1 (11741810_x_at) / RFU WNT11 (11732464_a_at) / Fold change /veh WNT11 (11732464_a_at) / RFU C10orf10 (11716521_a_at) / Fold change /veh C10orf10 (11716521_a_at) / RFU C5orf56 (11738089_at) / Fold change /veh C5orf56 (11738089_at) / RFU CYB561 (11721691_x_at) / Fold change /veh CYB561 (11721691_x_at) / RFU ANKRD19P (11752326_a_at) / Fold change /veh ANKRD19P (11752326_a_at) / RFU OR2T12 /// OR2T33 /// OR2T8 (11738714_s_at) / Fold change /veh OR2T12 /// OR2T33 /// OR2T8 (11738714_s_at) / RFU VCAN (11748164_a_at) / Fold change /veh VCAN (11748164_a_at) / RFU JSRP1 (11732532_at) / Fold change /veh JSRP1 (11732532_at) / RFU KRTAP10-11 (11738290_x_at) / Fold change /veh KRTAP10-11 (11738290_x_at) / RFU MYO3A (11730013_a_at) / Fold change /veh MYO3A (11730013_a_at) / RFU EBF3 (11725865_a_at) / Fold change /veh EBF3 (11725865_a_at) / RFU CAMK2N1 (11719241_x_at) / Fold change /veh CAMK2N1 (11719241_x_at) / RFU C5orf56 (11738088_a_at) / Fold change /veh C5orf56 (11738088_a_at) / RFU OLFML3 (11715873_a_at) / Fold change /veh OLFML3 (11715873_a_at) / RFU LOC100653217 /// NTM (11731650_a_at) / Fold change /veh LOC100653217 /// NTM (11731650_a_at) / RFU MAPK11 (11762145_a_at) / Fold change /veh MAPK11 (11762145_a_at) / RFU FIZ1 (11724087_x_at) / Fold change /veh FIZ1 (11724087_x_at) / RFU OASL (11726364_x_at) / Fold change /veh OASL (11726364_x_at) / RFU SOX15 (11748057_x_at) / Fold change /veh SOX15 (11748057_x_at) / RFU CD79A (11719716_a_at) / Fold change /veh CD79A (11719716_a_at) / RFU HIST1H1D (11736915_at) / Fold change /veh HIST1H1D (11736915_at) / RFU CASKIN2 (11723855_a_at) / Fold change /veh CASKIN2 (11723855_a_at) / RFU LOC730098 (11760151_x_at) / Fold change /veh LOC730098 (11760151_x_at) / RFU OR4N2 (11742367_at) / Fold change /veh OR4N2 (11742367_at) / RFU PRRT2 (11749266_a_at) / Fold change /veh PRRT2 (11749266_a_at) / RFU SNX32 (11753110_a_at) / Fold change /veh SNX32 (11753110_a_at) / RFU CDHR5 (11726645_a_at) / Fold change /veh CDHR5 (11726645_a_at) / RFU RCAN1 (11760418_a_at) / Fold change /veh RCAN1 (11760418_a_at) / RFU FAM167A (11723789_a_at) / Fold change /veh FAM167A (11723789_a_at) / RFU FAM26E (11764081_at) / Fold change /veh FAM26E (11764081_at) / RFU ISYNA1 (11749810_s_at) / Fold change /veh ISYNA1 (11749810_s_at) / RFU ACY1 (11761880_at) / Fold change /veh ACY1 (11761880_at) / RFU 11764098_at / Fold change /veh 11764098_at / RFU SAMD14 (11745864_x_at) / Fold change /veh SAMD14 (11745864_x_at) / RFU NPB (11741838_a_at) / Fold change /veh NPB (11741838_a_at) / RFU TMPRSS6 (11731388_a_at) / Fold change /veh TMPRSS6 (11731388_a_at) / RFU KRTAP10-2 (11738614_at) / Fold change /veh KRTAP10-2 (11738614_at) / RFU ARHGAP8 /// PRR5-ARHGAP8 (11727945_x_at) / Fold change /veh ARHGAP8 /// PRR5-ARHGAP8 (11727945_x_at) / RFU KRTAP5-7 /// NADSYN1 (11734609_at) / Fold change /veh KRTAP5-7 /// NADSYN1 (11734609_at) / RFU RASL12 (11751679_a_at) / Fold change /veh RASL12 (11751679_a_at) / RFU CDKN2B (11736163_a_at) / Fold change /veh CDKN2B (11736163_a_at) / RFU PRF1 (11729649_at) / Fold change /veh PRF1 (11729649_at) / RFU, ZNF638 /// ZNF638-IT1 / Fold change vs veh, ZNF638 /// ZNF638-IT1 / RFU, PANK3 / Fold change vs veh, PANK3 / RFU, SH3YL1 / Fold change vs veh, SH3YL1 / RFU, ZEB2 / Fold change vs veh, ZEB2 / RFU, NRIP1 / Fold change vs veh, NRIP1 / RFU, PTTG1IP / Fold change vs veh, PTTG1IP / RFU, CAPN2 / Fold change vs veh, CAPN2 / RFU, MED14 / Fold change vs veh, MED14 / RFU, SNORA58 / Fold change vs veh, SNORA58 / RFU, C1orf63 / Fold change vs veh, C1orf63 / RFU, LRRFIP1 / Fold change vs veh, LRRFIP1 / RFU, NDUFAF7 / Fold change vs veh, NDUFAF7 / RFU, SLC12A2 / Fold change vs veh, SLC12A2 / RFU, IBTK / Fold change vs veh, IBTK / RFU, ESF1 / Fold change vs veh, ESF1 / Fold change vs veh, TMEM50B / RFU, TAOK1 / Fold change vs veh, TAOK1 / RFU, ACBD3 / Fold change vs veh, ACBD3 / RFU, TMA16 / Fold change vs veh, TMA16 / RFU, RWDD3 / Fold change vs veh, RWDD3 / RFU, BCAT1 / Fold change vs veh, BCAT1 / RFU, EDEM3 / Fold change vs veh, EDEM3 / RFU, TMEM33 / Fold change vs veh, TMEM33 / RFU, WDR75 / Fold change vs veh, WDR75 / RFU, AHCTF1 / Fold change vs veh, AHCTF1 / RFU, TFRC / Fold change vs veh, TFRC / RFU, ZDHHC17 / Fold change vs veh, ZDHHC17 / RFU, NOM1 / Fold change vs veh, NOM1 / RFU, ARL8B / Fold change vs veh, ARL8B / RFU, ZBTB11 / Fold change vs veh, ZBTB11 / RFU, TAMM41 / Fold change vs veh, TAMM41 / RFU, KIAA1704 /// LOC100996395 / Fold change vs veh, KIAA1704 /// LOC100996395 / RFU, ING1 / Fold change vs veh, ING1 / RFU, TRMT61B / Fold change vs veh, TRMT61B / RFU, FUBP3 / Fold change vs veh, FUBP3 / RFU, TP53 / Fold change vs veh, TP53 / RFU, TNKS2 / Fold change vs veh, TNKS2 / RFU, ZFP14 / Fold change vs veh, ZFP14 / RFU, ACTR2 / Fold change vs veh, ACTR2 / RFU, PPP3R1 / Fold change vs veh, PPP3R1 / RFU, PIK3R1 / Fold change vs veh, PIK3R1 / RFU, HNRNPA1 / Fold change vs veh, HNRNPA1 / RFU, RNF170 / Fold change vs veh, RNF170 / RFU, ZNF28 / Fold change vs veh, ZNF28 / RFU, RNGTT / Fold change vs veh, RNGTT / RFU, OGT / Fold change vs veh, OGT / RFU, BRD1 / Fold change vs veh, BRD1 / RFU, MARS / Fold change vs veh, MARS / RFU, ZNF655 / Fold change vs veh, ZNF655 / RFU, FAHD1 / Fold change vs veh, FAHD1 / RFU, BDP1 / Fold change vs veh, BDP1 / RFU, LRRCC1 / Fold change vs veh, LRRCC1 / RFU, ARID1A / Fold change vs veh, ARID1A / RFU, ZNF146 / Fold change vs veh, ZNF146 / RFU, ZNF330 / Fold change vs veh, ZNF330 / RFU, GPN3 / Fold change vs veh, GPN3 / RFU, C9orf123 / Fold change vs veh, C9orf123 / RFU, N4BP2L2 / Fold change vs veh, N4BP2L2 / RFU, ARFIP1 / Fold change vs veh, ARFIP1 / RFU, FAM179B / Fold change vs veh, FAM179B / RFU, BCL10 / Fold change vs veh, BCL10 / RFU, UHRF1BP1L / Fold change vs veh, UHRF1BP1L / RFU, BET1 / Fold change vs veh, BET1 / RFU, CNOT2 / Fold change vs veh, CNOT2 / RFU, ZNF268 / Fold change vs veh, ZNF268 / Fold change vs veh, ZNF507 / RFU, DGCR2 / Fold change vs veh, DGCR2 / RFU, WDSUB1 / Fold change vs veh, WDSUB1 / Fold change vs veh, HSP90B1 /// MIR3652 / RFU, ADSS / Fold change vs veh, ADSS / RFU, GK / Fold change vs veh, GK / RFU, ZNF148 / Fold change vs veh, ZNF148 / RFU, TAF9 / Fold change vs veh, TAF9 / RFU, SLC1A5 / Fold change vs veh, SLC1A5 / RFU, SLMO2 / Fold change vs veh, SLMO2 / RFU, ABCC4 / Fold change vs veh, ABCC4 / RFU, LOC101060439 /// RAP1B / Fold change vs veh, LOC101060439 /// RAP1B / RFU, RFX7 / Fold change vs veh, RFX7 / RFU, GTPBP10 / Fold change vs veh, GTPBP10 / RFU, CNEP1R1 / Fold change vs veh, CNEP1R1 / RFU, BIVM-ERCC5 /// ERCC5 / Fold change vs veh, BIVM-ERCC5 /// ERCC5 / RFU, ILF3 / Fold change vs veh, ILF3 / RFU 11762660_at / Fold change /veh 11762660_at / RFU VCAN (11757783_s_at) / Fold change /veh VCAN (11757783_s_at) / RFU DDX43 (11728927_at) / Fold change /veh DDX43 (11728927_at) / RFU KRT8 (11758188_x_at) / Fold change /veh KRT8 (11758188_x_at) / RFU NKD1 (11759106_at) / Fold change /veh NKD1 (11759106_at) / RFU SRD5A1 (11742802_a_at) / Fold change /veh SRD5A1 (11742802_a_at) / RFU TPSAB1 /// TPSB2 (11721975_s_at) / Fold change /veh TPSAB1 /// TPSB2 (11721975_s_at) / RFU GSTM3 (11746129_a_at) / Fold change /veh GSTM3 (11746129_a_at) / RFU IL23R (11737362_x_at) / Fold change /veh IL23R (11737362_x_at) / RFU TMEM51 (11727254_a_at) / Fold change /veh TMEM51 (11727254_a_at) / RFU PIWIL2 (11732686_x_at) / Fold change /veh PIWIL2 (11732686_x_at) / RFU ORM1 (11744905_x_at) / Fold change /veh ORM1 (11744905_x_at) / RFU CCDC152 (11743942_at) / Fold change /veh CCDC152 (11743942_at) / RFU ECM1 (11717891_a_at) / Fold change /veh ECM1 (11717891_a_at) / RFU IL23R (11748794_a_at) / Fold change /veh IL23R (11748794_a_at) / RFU TNFAIP8L3 (11732012_x_at) / Fold change /veh TNFAIP8L3 (11732012_x_at) / RFU MBOAT4 (11741988_at) / Fold change /veh MBOAT4 (11741988_at) / RFU 11764193_at / Fold change /veh 11764193_at / RFU TMEM53 (11763286_at) / Fold change /veh TMEM53 (11763286_at) / RFU MAGEB2 (11727129_at) / Fold change /veh MAGEB2 (11727129_at) / RFU TMEM200A (11744735_a_at) / Fold change /veh TMEM200A (11744735_a_at) / RFU CCDC152 (11751479_a_at) / Fold change /veh CCDC152 (11751479_a_at) / RFU FAM211A (11726209_a_at) / Fold change /veh FAM211A (11726209_a_at) / RFU RGS16 (11746705_a_at) / Fold change /veh RGS16 (11746705_a_at) / RFU VCAN (11755009_s_at) / Fold change /veh VCAN (11755009_s_at) / RFU RHOB (11743442_s_at) / Fold change /veh RHOB (11743442_s_at) / RFU RGS16 (11720943_a_at) / Fold change /veh RGS16 (11720943_a_at) / RFU RGS16 (11720944_at) / Fold change /veh RGS16 (11720944_at) / RFU, VPS4B / Fold change vs veh, VPS4B / RFU, CREB1 / Fold change vs veh, CREB1 / RFU, DNAJC13 / Fold change vs veh, DNAJC13 / RFU, GNAQ / Fold change vs veh, GNAQ / RFU, CDK5R1 / Fold change vs veh, CDK5R1 / RFU, ZRANB3 / Fold change vs veh, ZRANB3 / RFU, CUL4A / Fold change vs veh, CUL4A / RFU, CCNY / Fold change vs veh, CCNY / RFU, UFL1 / Fold change vs veh, UFL1 / RFU, COG3 / Fold change vs veh, COG3 / RFU, DIAPH2 / Fold change vs veh, DIAPH2 / RFU, SKA2 / Fold change vs veh, SKA2 / RFU, AFF3 / Fold change vs veh, AFF3 / RFU, LMF1 / Fold change vs veh, LMF1 / RFU, IPO11 / Fold change vs veh, IPO11 / RFU, DFFB / Fold change vs veh, DFFB / RFU, FOXP1 / Fold change vs veh, FOXP1 / RFU, CARD8 / Fold change vs veh, CARD8 / RFU, STRN3 / Fold change vs veh, STRN3 / RFU, ADK / Fold change vs veh, ADK / RFU, RASSF2 / Fold change vs veh, RASSF2 / RFU, WIPF1 / Fold change vs veh, WIPF1 / RFU, LARP1B / Fold change vs veh, LARP1B / RFU, RASA1 / Fold change vs veh, RASA1 / RFU, RB1 / Fold change vs veh, RB1 / RFU, PPFIA1 / Fold change vs veh, PPFIA1 / RFU, MAT2A / Fold change vs veh, MAT2A / RFU, CCT5 / Fold change vs veh, CCT5 / RFU, WDR92 / Fold change vs veh, WDR92 / RFU, CUX1 / Fold change vs veh, CUX1 / RFU, TTC7A / Fold change vs veh, TTC7A / RFU, TMEM135 / Fold change vs veh, TMEM135 / RFU, DEPTOR / Fold change vs veh, DEPTOR / RFU, CPM / Fold change vs veh, CPM / RFU, DNAJB6 / Fold change vs veh, DNAJB6 / RFU, CACNA2D3 / Fold change vs veh, CACNA2D3 / RFU, DTX4 / Fold change vs veh, DTX4 / RFU, TFCP2 / Fold change vs veh, TFCP2 / RFU, GMCL1 /// GMCL1P1 / Fold change vs veh, GMCL1 /// GMCL1P1 / RFU, AEBP2 / Fold change vs veh, AEBP2 / RFU, SNHG1 /// SNORD22 /// SNORD25 /// SNORD26 /// SNORD27 /// SNORD28 /// SNORD29 /// SNORD31 / Fold change vs veh, SNHG1 /// SNORD22 /// SNORD25 /// SNORD26 /// SNORD27 /// SNORD28 /// SNORD29 /// SNORD31 / Fold change (Aza/veh), C12orf56 (ProbeSet 11735607_a_at) / Fold change (ACY-1035/veh), C12orf56 (ProbeSet 11735607_a_at) / Fold change (Aza/veh), FGFR1OP (ProbeSet 11751329_s_at) / Fold change (ACY-1035/veh), FGFR1OP (ProbeSet 11751329_s_at) / Fold change (Aza/veh), VPS36 (ProbeSet 11739960_a_at) / Fold change (ACY-1035/veh), VPS36 (ProbeSet 11739960_a_at) / RFU SYPL1 (11715823_x_at) / Fold change /veh SYPL1 (11715823_x_at) / RFU IGFBP7 (11715501_s_at) / Fold change /veh IGFBP7 (11715501_s_at) / RFU REEP3 (11722064_at) / Fold change /veh REEP3 (11722064_at) / RFU IGLL1 (11728026_x_at) / Fold change /veh IGLL1 (11728026_x_at): dose or concentration left out as unconfirmed
# Settings: MV-4-11 cells, 48 hours
smiles,measurement,value
Nc1ncn([C@@H]2O[C@H](CO)[C@@H](O)[C@H]2O)c(=O)n1 [azacitidine],Fold change /veh RCAN1 (11760418_a_at),0.93
